Values belong to the compound of their own block, whether it stands above or below them. Activity calls are given as the source filed them. No cut-off for these calls is given here.
Columns and labels:
[1] = molecular target: T1, Voltage-dependent T-type calcium channel subunit alpha-1I (Homo sapiens, UniProt Q9P0X4); experiment: Antagonist activity at Cav3.3 alpha1i expressed in HEK293 cells by depolarized FLIPR assay; format: functional, cell-based
[2] = Plasma clearance in dog at 0.5 mg/kg, iv; format: ADME, organism-based, Canis lupus familiaris; set-up: dose 0.5 mg/kg, route intravenous
[3] = molecular target: Voltage-dependent T-type calcium channel subunit alpha-1G (Homo sapiens, UniProt O43497); experiment: Inhibition of Cav3.1 alpha1G at -80 mV holding potential by tandard voltage-clamp electrophysiology assay
[4] = system: Rattus norvegicus; experiment: Effect on sleep architecture in rat assessed as reduction in REM sleep at 3 mg/kg, po up to 4 hrs; format: functional, organism-based; set-up: dose 3 mg/kg
[5] = Plasma clearance in rat at 2 mg/kg, iv
[6] = Binding affinity to L-type Ca2+ channel
[7] = system: Rattus norvegicus; experiment: Effect on sleep architecture in rat assessed as increase in delta sleep at 3 mg/kg, po up to 4 hrs; format: functional, organism-based; set-up: dose 3 mg/kg
[8] = species: Mus musculus; experiment: Inhibition of high-fat diet-induced weight gain in mouse; format: functional, organism-based
[9] = Volume of distribution at steady state in dog at 0.5 mg/kg, iv; format: ADME, organism-based, Canis lupus familiaris; set-up: dose 0.5 mg/kg, route intravenous; conditions: in vivo
[10] = Half life in dog at 0.5 mg/kg, iv; format: ADME, organism-based, Canis lupus familiaris; set-up: dose 0.5 mg/kg, route intravenous; conditions: in vivo
[11] = Volume of distribution at steady state in rat at 2 mg/kg, iv; conditions: in vivo
[12] = Plasma clearance in rhesus monkey at 0.5 mg/kg, iv; format: ADME, organism-based, Macaca mulatta; set-up: dose 0.5 mg/kg, route intravenous
[13] = molecular target: Voltage-dependent N-type calcium channel subunit alpha-1B (Homo sapiens, UniProt Q00975); experiment: Inhibition of N-type Cav2.2 at -80 mV holding potential by tandard voltage-clamp electrophysiology assay
[14] = Bioavailability in rhesus monkey at 0.5 mg/kg, iv; format: ADME, organism-based, Macaca mulatta; conditions: in vivo
[15] = molecular target: Voltage-dependent T-type calcium channel subunit alpha-1H (Homo sapiens, UniProt O95180); experiment: Inhibition of Cav3.2 alpha1H at -80 mV holding potential by tandard voltage-clamp electrophysiology assay
[16] = Bioavailability in dog at 0.5 mg/kg, iv; format: ADME, organism-based, Canis lupus familiaris; conditions: in vivo
[17] = system: Rattus norvegicus; experiment: Antiepileptic activity in WAG/Rij rat seizure model assessed as reduction in total seizure time measured for 4 hrs at 10 mg/kg, po by radiotelemetric physiologic monitor; format: functional
[18] = molecular target: T1, Voltage-dependent T-type calcium channel subunit alpha-1I; experiment: Binding affinity to Cav3.3 alpha1i
[19] = molecular target: Voltage-dependent R-type calcium channel subunit alpha-1E (Homo sapiens, UniProt Q15878); experiment: Inhibition of R-type Cav2.3 at -80 mV holding potential by tandard voltage-clamp electrophysiology assay
[20] = Bioavailability in rat at 2 mg/kg, iv and 10 mg/kg, po; conditions: in vivo
[21] = Half life in rhesus monkey at 0.5 mg/kg, iv; format: ADME, organism-based, Macaca mulatta; set-up: dose 0.5 mg/kg, route intravenous; conditions: in vivo
[22] = molecular target: Voltage-gated inwardly rectifying potassium channel KCNH2 (Homo sapiens, UniProt Q12809); experiment: Inhibition of human ERG
[23] = Volume of distribution at steady state in rhesus monkey at 0.5 mg/kg, iv; format: ADME, organism-based, Macaca mulatta; set-up: dose 0.5 mg/kg, route intravenous; conditions: in vivo
[24] = molecular target: Voltage-dependent L-type calcium channel subunit alpha-1C (Homo sapiens, UniProt Q13936); experiment: Inhibition of L-type Cav1.2 at -80 mV holding potential by tandard voltage-clamp electrophysiology assay
[25] = system: Rattus norvegicus; experiment: Effect on sleep architecture in rat assessed as reduction in active awake at 3 mg/kg, po up to 4 hrs; format: functional, organism-based; set-up: dose 3 mg/kg
[26] = Half life in rat at 2 mg/kg, iv; conditions: in vivo
[27] = Cmax in non-implanted rat plasma after 1.2 hrs; format: ADME, organism-based
[28] = molecular target: T1, Voltage-dependent T-type calcium channel subunit alpha-1I; experiment: Antagonist activity at Cav3.3 alpha1i expressed in HEK293 cells at -100 mV by standard voltage-clamp electrophysiology assay; format: functional, cell-based
[29] = system: Rattus norvegicus; experiment: Effect on sleep architecture in po dosed rat assessed as reduction in active awake up to 4 hrs; format: functional, organism-based
[30] = molecular target: Voltage-dependent P/Q-type calcium channel subunit alpha-1A (Homo sapiens, UniProt O00555); experiment: Inhibition of P/Q-type Cav2.1 at -80 mV holding potential by tandard voltage-clamp electrophysiology assay

T1 sequence (Q9P0X4 whole entry): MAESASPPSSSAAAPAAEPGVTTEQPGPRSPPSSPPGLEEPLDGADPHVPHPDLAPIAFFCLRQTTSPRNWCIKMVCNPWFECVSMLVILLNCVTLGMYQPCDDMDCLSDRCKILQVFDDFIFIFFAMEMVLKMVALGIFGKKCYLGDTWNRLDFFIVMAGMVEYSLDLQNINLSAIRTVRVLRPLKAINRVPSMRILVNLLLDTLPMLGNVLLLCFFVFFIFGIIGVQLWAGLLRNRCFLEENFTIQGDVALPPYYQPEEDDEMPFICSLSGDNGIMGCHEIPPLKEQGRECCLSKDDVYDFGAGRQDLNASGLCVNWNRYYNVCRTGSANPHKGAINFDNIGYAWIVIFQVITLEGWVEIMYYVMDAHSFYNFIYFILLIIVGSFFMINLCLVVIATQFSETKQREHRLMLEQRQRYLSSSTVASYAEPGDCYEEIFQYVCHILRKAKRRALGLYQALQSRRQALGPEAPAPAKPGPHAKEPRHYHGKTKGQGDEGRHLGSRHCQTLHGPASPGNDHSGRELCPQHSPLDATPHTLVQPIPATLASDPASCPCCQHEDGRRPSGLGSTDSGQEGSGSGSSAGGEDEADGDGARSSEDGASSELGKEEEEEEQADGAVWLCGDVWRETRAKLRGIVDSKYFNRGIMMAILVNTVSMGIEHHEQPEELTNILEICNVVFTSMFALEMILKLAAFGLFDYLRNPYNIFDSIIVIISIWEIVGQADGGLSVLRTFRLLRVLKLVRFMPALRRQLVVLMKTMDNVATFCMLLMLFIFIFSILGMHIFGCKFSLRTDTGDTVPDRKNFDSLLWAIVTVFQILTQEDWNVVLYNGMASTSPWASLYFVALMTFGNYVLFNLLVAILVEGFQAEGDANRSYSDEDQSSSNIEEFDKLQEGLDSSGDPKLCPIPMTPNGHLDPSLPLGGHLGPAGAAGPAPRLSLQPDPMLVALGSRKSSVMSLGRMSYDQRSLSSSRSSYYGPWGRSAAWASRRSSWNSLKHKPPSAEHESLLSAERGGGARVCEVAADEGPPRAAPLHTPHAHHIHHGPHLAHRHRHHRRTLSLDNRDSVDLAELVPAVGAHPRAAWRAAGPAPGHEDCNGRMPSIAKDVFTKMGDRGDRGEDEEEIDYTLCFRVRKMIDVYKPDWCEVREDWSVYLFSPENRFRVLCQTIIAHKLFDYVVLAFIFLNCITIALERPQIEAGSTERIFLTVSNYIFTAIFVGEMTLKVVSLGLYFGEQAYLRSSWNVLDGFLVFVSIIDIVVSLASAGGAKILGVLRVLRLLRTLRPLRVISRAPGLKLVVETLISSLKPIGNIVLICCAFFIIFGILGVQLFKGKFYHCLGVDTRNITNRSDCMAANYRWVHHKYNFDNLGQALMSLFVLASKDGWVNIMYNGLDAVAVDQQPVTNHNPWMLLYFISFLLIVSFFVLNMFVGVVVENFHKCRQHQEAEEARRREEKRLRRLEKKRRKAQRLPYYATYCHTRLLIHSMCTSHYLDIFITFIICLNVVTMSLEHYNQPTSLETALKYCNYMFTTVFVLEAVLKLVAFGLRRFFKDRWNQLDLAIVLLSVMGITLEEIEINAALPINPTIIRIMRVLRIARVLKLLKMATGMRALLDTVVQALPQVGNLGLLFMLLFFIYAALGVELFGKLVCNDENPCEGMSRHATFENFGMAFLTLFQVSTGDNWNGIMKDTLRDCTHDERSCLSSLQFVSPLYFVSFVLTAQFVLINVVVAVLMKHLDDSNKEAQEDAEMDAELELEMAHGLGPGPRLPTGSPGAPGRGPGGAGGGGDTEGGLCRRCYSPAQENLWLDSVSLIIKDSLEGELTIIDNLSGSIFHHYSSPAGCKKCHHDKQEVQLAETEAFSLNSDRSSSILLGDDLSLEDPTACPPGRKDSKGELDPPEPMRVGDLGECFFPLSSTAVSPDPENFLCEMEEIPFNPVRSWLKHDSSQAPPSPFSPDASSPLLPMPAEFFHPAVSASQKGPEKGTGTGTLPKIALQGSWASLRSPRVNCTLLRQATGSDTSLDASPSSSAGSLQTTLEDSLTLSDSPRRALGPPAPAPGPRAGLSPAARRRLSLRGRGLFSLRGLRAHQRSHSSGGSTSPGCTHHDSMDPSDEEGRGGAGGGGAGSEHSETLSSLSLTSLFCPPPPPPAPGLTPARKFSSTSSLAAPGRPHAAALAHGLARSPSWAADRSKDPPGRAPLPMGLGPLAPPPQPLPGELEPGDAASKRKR
Voltage-gated inwardly rectifying potassium channel KCNH2, sequence (Q12809 whole entry): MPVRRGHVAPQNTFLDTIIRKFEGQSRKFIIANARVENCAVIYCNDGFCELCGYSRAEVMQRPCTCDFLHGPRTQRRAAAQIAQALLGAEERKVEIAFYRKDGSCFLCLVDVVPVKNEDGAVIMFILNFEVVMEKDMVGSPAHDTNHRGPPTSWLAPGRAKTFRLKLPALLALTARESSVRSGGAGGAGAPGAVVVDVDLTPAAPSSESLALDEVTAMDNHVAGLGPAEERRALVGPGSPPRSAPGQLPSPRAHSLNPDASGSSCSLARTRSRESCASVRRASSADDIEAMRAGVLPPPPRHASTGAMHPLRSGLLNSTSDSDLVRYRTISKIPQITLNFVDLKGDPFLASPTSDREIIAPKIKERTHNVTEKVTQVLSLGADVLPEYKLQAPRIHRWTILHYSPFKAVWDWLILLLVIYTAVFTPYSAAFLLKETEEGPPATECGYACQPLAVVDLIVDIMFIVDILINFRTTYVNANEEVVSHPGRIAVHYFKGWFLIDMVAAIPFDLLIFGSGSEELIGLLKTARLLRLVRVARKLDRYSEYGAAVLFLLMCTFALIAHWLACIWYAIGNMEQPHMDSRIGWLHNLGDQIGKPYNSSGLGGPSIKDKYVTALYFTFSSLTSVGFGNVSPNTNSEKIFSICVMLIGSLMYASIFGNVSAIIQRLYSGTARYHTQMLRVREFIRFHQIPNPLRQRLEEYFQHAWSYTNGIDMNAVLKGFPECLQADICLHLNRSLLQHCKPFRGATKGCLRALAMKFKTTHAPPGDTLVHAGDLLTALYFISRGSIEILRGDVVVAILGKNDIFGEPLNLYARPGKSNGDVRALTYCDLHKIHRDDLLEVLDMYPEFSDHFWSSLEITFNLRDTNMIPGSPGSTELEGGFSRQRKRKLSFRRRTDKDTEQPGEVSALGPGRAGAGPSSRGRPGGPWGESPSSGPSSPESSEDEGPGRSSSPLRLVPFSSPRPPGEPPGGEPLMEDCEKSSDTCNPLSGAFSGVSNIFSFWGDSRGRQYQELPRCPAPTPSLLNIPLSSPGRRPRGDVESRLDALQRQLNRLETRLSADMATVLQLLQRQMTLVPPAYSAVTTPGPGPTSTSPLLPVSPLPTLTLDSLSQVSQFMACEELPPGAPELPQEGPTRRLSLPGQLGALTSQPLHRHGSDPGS

IP [1]: 427 nM
Structure (SMILES): CC(NC(=O)Cc1ccc(C(C)(C)C)cc1)c1ccccn1 (racemic)

IP [1]: 332 nM
Structure (SMILES): CC(NC(=O)Cc1ccc(C(C)(C)C)cc1)c1ccccc1Cl (racemic)

IP [1]: > 10000 nM
Structure (SMILES): COc1ccc([C@@H](C)NC(=O)Cc2ccc(F)cc2)nc1

IP [1]: > 5000 nM
Structure (SMILES): COc1ccc([C@@H](C)NC(=O)Cc2ccc(C#N)cc2)nc1

IP [1]: > 10000 nM
Structure (SMILES): COc1ccc([C@@H](C)NC(=O)Cc2ccccc2)nc1

IP [1]: 920 nM
Structure (SMILES): CC(C)c1ccc(CC(=O)N[C@H](C)c2ccc(O)cn2)cc1

IP [1]: > 10000 nM
Structure (SMILES): C[C@H](c1ccccc1)N(C)C(=O)Cc1ccc(C(C)(C)C)cc1

IP [1]: 146 nM
Structure (SMILES): COc1cccc([C@@H](C)NC(=O)Cc2ccc(C(C)(C)C)cc2)c1

IP [1]: 30 nM
Structure (SMILES): C[C@@H](NC(=O)Cc1ccc(C(C)(C)C)cc1)c1ccc(Cl)cn1

IP [1]: 21 nM
Structure (SMILES): C[C@@H](NC(=O)Cc1ccc(C2CC2)cc1)c1ccc(OCc2ccccc2)cn1

IP [1]: 2780 nM
Structure (SMILES): COc1ccc([C@@H](C)NC(=O)Cc2cccc(Cl)c2)nc1

IP [1]: 1740 nM
Structure (SMILES): COc1ccc(CC(=O)N[C@H](C)c2ccc(OC)cn2)cc1

IP [1]: 5380 nM
Structure (SMILES): CC(NC(=O)Cc1ccc(C(C)(C)C)cc1)c1cccnc1 (racemic)

IP [1]: > 5000 nM
Structure (SMILES): COc1ccc([C@@H](C)NC(=O)Cc2ccccc2Cl)nc1

IP [1]: > 10000 nM
Structure (SMILES): CC(NC(=O)Cc1ccc(C(C)(C)C)cc1)c1ccncc1 (racemic)

IP [1]: 146 nM
Structure (SMILES): COc1ccc([C@@H](C)NC(=O)Cc2ccc(C(C)(C)C)cc2)cc1

IP [1]: 123 nM
Structure (SMILES): C[C@@H](NC(=O)Cc1ccc(C(C)(C)C)cc1)c1ccc(Cl)cc1

IP [1]: 5480 nM
Structure (SMILES): CC(C)(C)c1ccc(CC(=O)NC(C)(C)c2ccccc2)cc1

Second part, the compound before the results:

Structure (SMILES): COc1ccc([C@@H](C)NC(=O)Cc2ccc(Cl)cc2)nc1
IP [1]: 1330 nM

Structure (SMILES): C[C@@H](NC(=O)Cc1ccc(C(C)(C)C)cc1)c1ccccc1
IP [1]: 235 nM

Structure (SMILES): CCCOc1ccc([C@@H](C)NC(=O)Cc2ccc(C3CC3)cc2)nc1
IP [1]: 11 nM

Structure (SMILES): COc1ccc([C@@H](C)NC(=O)Cc2ccc(Oc3ccccc3)cc2)nc1
IP [1]: 439 nM

Structure (SMILES): COC(=O)c1ccc(CC(=O)N[C@H](C)c2ccc(OC)cn2)cc1
IP [1]: 1450 nM

Structure (SMILES): CCCOc1ccc([C@@H](C)NC(=O)Cc2ccc(C(C)C)cc2)nc1
IP [1]: 10 nM

Structure (SMILES): C[C@@H](NC(=O)Cc1ccc(C2CC2)cc1)c1ccc(OCC(F)(F)F)cn1
clearance [2]: 0.054 L/h/kg
IC50 [3]: 0.089 µM
Activity [4]: Active
clearance [5]: 0.36 L/h/kg
IC50 [6]: > 10 µM
Activity [7]: Active
inhibition [8]: Active
Vd [9]: 0.7 L/kg
half-life [10]: 11 h
Vd [11]: 0.8 L/kg
clearance [12]: 1.02 L/h/kg
IC50 [13]: > 30 µM
bioavailability [14]: 7%
IC50 [15]: 0.092 µM
bioavailability [16]: 43%
inhibition in vivo at 10 mg/kg [17]: 87%
Ki [18]: 0.0012 µM
IC50 [19]: > 30 µM
bioavailability [20]: 68%
half-life [21]: 0.9 h
IC50 [22]: > 10 µM
Vd [23]: 0.9 L/kg
IC50 [24]: > 30 µM
Activity [25]: Active
half-life [26]: 1.5 h
Cmax [27]: 4 µM
IC50 [28]: 3.7 µM
Activity [29]: Dose-dependent effect
IP [1]: 6 nM
IC50 [30]: > 30 µM

Structure (SMILES): COc1ccc([C@@H](C)NC(=O)Cc2ccc(C3CC3)cc2)nc1
IP [1]: 70 nM

Structure (SMILES): COc1ccc([C@@H](C)NC(=O)Cc2ccc(C(C)(C)O)cc2)nc1
IP [1]: 1130 nM

Structure (SMILES): COc1ccc([C@@H](C)NC(=O)Cc2ccc(C(C)(C)C)cc2)nc1
IC50 [6]: > 10 µM
inhibition in vivo at 10 mg/kg [17]: 49%
Ki [18]: 0.005 µM
IC50 [22]: > 10 µM
IP [1]: 22 nM

Structure (SMILES): CC(C)c1ccc(CC(=O)N[C@H](C)c2ccc(OCc3ccccc3)cn2)cc1
IP [1]: 16 nM

Structure (SMILES): C[C@@H](NC(=O)Cc1ccc(C2CC2)cc1)c1ccc(O)cn1
IP [1]: 1720 nM

Structure (SMILES): C[C@H](NC(=O)Cc1ccc(C(C)(C)C)cc1)c1ccccc1
IP [1]: 4680 nM

Structure (SMILES): CC(C)c1ccc(CC(=O)N[C@H](C)c2ccc(OCC(F)(F)F)cn2)cc1
IP [1]: 5 nM

Structure (SMILES): COc1ccc([C@@H](C)NC(=O)Cc2ccc(C(C)C)cc2)nc1
IP [1]: 45 nM

Structure (SMILES): COc1ccc([C@@H](C)NC(=O)Cc2ccc(S(C)(=O)=O)cc2)nc1
IP [1]: > 10000 nM

Structure (SMILES): COc1ccc([C@@H](C)NC(=O)Cc2ccc(Cl)c(Cl)c2)nc1
IP [1]: 252 nM

Source: ChEMBL document CHEMBL1681710, “Pyridyl amides as potent inhibitors of T-type calcium channels” (Bioorg Med Chem Lett, 2011)
